In PubChem BioAssay (NCI):
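1) Cells in 96-well plates. 2) Compound, 48 h, 5 concentrations. 3) Linear interpolation between surrounding doses. 4) Unreached endpoint = highest concentration. At the TGI there is no net growth.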

Tests used:
Assay in all cases: NCI anticancer screen, dose series, 48 h
MOLT-4 leukemia = tested on: MOLT-4 leukemia
NCI-H226 lung = tested on: NCI-H226 lung
MDA-MB-231 breast = tested on: MDA-MB-231 breast
SF-268 CNS = tested on: SF-268 CNS
A498 renal = tested on: A498 renal
RPMI-8226 leukemia = tested on: RPMI-8226 leukemia
HOP-92 NSCLC = tested on: HOP-92 NSCLC
NCI-H522 lung = tested on: NCI-H522 lung
K-562 leukemia = tested on: K-562 leukemia
HT29 colon = tested on: HT29 colon
HCT-15 colon = tested on: HCT-15 colon
LOX IMVI melanoma = tested on: LOX IMVI melanoma
SK-MEL-5 melanoma = tested on: SK-MEL-5 melanoma
COLO 205 colon = tested on: COLO 205 colon
SK-OV-3 ovarian = tested on: SK-OV-3 ovarian
UACC-257 melanoma = tested on: UACC-257 melanoma
ACHN renal = tested on: ACHN renal
SN12C renal = tested on: SN12C renal
PC-3 prostate = tested on: PC-3 prostate
UO-31 renal = tested on: UO-31 renal

Compound | TGI (MOLT-4 leukemia) [µM] | TGI (NCI-H226 lung) [µM] | TGI (MDA-MB-231 breast) [µM] | TGI (SF-268 CNS) [µM] | TGI (A498 renal) [µM] | TGI (RPMI-8226 leukemia) [µM] | TGI (HOP-92 NSCLC) [µM] | TGI (NCI-H522 lung) [µM] | TGI (K-562 leukemia) [µM] | TGI (HT29 colon) [µM] | TGI (HCT-15 colon) [µM] | TGI (LOX IMVI melanoma) [µM] | TGI (SK-MEL-5 melanoma) [µM] | TGI (COLO 205 colon) [µM] | TGI (SK-OV-3 ovarian) [µM] | TGI (UACC-257 melanoma) [µM] | TGI (ACHN renal) [µM] | TGI (SN12C renal) [µM] | TGI (PC-3 prostate) [µM] | TGI (UO-31 renal) [µM]
CCOC(CCNCC(OCC)OCC)OCC | > 10 | > 10 | > 10 | > 10 | > 10 | > 10 | > 10 | > 10 | > 10 | > 10 | > 10 | > 10 | > 10 | > 10 | > 10 | > 10 | > 10 | > 10 | > 10 | –
CC(C)C1OC23CCCCC2C(C#N)(C#N)C1(C#N)C(=N)O3 (centres undefined) | > 100 | > 100 | 39.7 | 46.6 | 60 | – | 35.1 | – | > 100 | 43.8 | 23.5 | 54 | 35.7 | 33.5 | > 100 | 45.9 | > 100 | 31.4 | > 100 | > 100
O=[N+]([O-])c1ccccc1S(=O)(=O)c1cc(Cl)cc2c1NCCC2 | > 100 | > 100 | > 100 | > 100 | > 100 | > 100 | > 100 | – | > 100 | > 100 | > 100 | > 100 | 86.1 | > 100 | > 100 | 96.7 | > 100 | > 100 | > 100 | > 100
COc1cc(/C=C2\CCC(C)C3C2=NN(C(C)=O)C3c2cc(OC)c(OC)c(OC)c2)cc(OC)c1OC (centres undefined) | > 100 | > 100 | > 100 | > 100 | > 100 | > 100 | > 100 | 22.2 | > 100 | > 100 | > 100 | > 100 | > 100 | > 100 | > 100 | > 100 | > 100 | > 100 | > 100 | –
CC(=O)OCc1cc(CCC(=O)NCCNc2c3ccccc3nc3ccccc23)cc(COC(C)=O)c1O[Si](C)(C)C(C)(C)C | 5.25 | 4.72 | 11.6 | – | 6.1 | 5.77 | 22.7 | 21.8 | 6.49 | 7.38 | 33.3 | 3.58 | – | 15.9 | 27.7 | 14.6 | 30.6 | 3.38 | 29.3 | 31.1
C[N+](C)([O-])CCC=C1c2ccccc2CCc2ccccc21 | 40.7 | 67.5 | 68 | 54.6 | 48.1 | 34.5 | 94.4 | 34.4 | 52 | 67.9 | 95 | 2.7 | 34.3 | 43.6 | > 100 | > 100 | > 100 | 62.9 | 86.3 | –
COc1ccc(/C=C(/C(=O)c2ccc(Cl)cc2)N2C=CC=CC2=C(C#N)C#N)cc1OC | 4.64 | 38.4 | 21.6 | 17.2 | 30.5 | 8.59 | 13.4 | 0.953 | – | 13.1 | 6.19 | 8.3 | 22.9 | 3.32 | > 82.1 | 17.2 | 11.9 | 47.7 | 12.9 | 3.44
COc1ccc(C(=O)Sc2c(-c3ccccc3)c(=O)n(-c3ccccc3)c(=S)n2-c2ccccc2)cc1 | 56.1 | 58.7 | > 100 | > 100 | 44 | – | 71.2 | > 100 | > 100 | > 100 | > 100 | > 100 | – | > 100 | > 100 | > 100 | > 100 | > 100 | > 100 | –
CC(C)(C)C(=O)OCC1CCC[N+]2(C)CCCCC12 (centres undefined) | > 100 | > 100 | > 100 | > 100 | > 100 | > 100 | > 100 | – | > 100 | > 100 | > 100 | > 100 | > 100 | > 100 | > 100 | > 100 | > 100 | > 100 | > 100 | > 100
NC(=O)C(N)Cc1ccc(O)cn1 (centres undefined) | > 100 | > 100 | > 100 | > 100 | > 100 | > 100 | > 100 | > 100 | > 100 | > 100 | > 100 | > 100 | > 100 | > 100 | – | > 100 | > 100 | > 100 | > 100 | > 100
CN(C)Cc1cc(C(=O)/C=C/c2ccc(Cl)cc2)cc(CN(C)C)c1O | 49.9 | 49.8 | 23.5 | 71.1 | 27.7 | 42.6 | – | 10.8 | 21.4 | 18.6 | 54.4 | 15.3 | 27.6 | 10.7 | – | 29.2 | 16.1 | 28.1 | 24.7 | 19.9
C=C(C)C(CC=C(C)C)CC12CC(CC=C(C)C)C(C)(C)C(CC=C(C)C)(C(=O)C(Cc3ccc(O)c(O)c3)=C1O)C2=O (centres undefined) | > 100 | > 100 | > 100 | > 100 | > 100 | > 100 | > 100 | > 100 | > 100 | > 100 | > 100 | > 100 | > 100 | > 100 | > 100 | > 100 | > 100 | – | > 100 | > 100
Cc1ccc(/C=N/n2c(=O)[nH]c3ccccc3c2=O)cc1 | > 100 | > 100 | > 100 | > 100 | > 100 | > 100 | > 100 | – | > 100 | > 100 | > 100 | > 100 | > 100 | > 100 | > 100 | > 100 | > 100 | > 100 | > 100 | > 100
CCC(C)(C)/C(CC(O)(C(F)(F)F)C(F)(F)F)=N\O | > 100 | > 100 | > 100 | > 100 | > 100 | > 100 | > 100 | > 100 | > 100 | > 100 | > 100 | > 100 | > 100 | > 100 | > 100 | – | > 100 | > 100 | > 100 | > 100
CN1C(=O)N/C(=C\c2ccc(S(=O)(=O)NN)cc2)C1=O | > 100 | > 100 | > 100 | > 100 | > 100 | > 100 | > 100 | – | > 100 | > 100 | > 100 | > 100 | > 100 | > 100 | > 100 | > 100 | > 100 | > 100 | > 100 | > 100
CCOC(=O)C1(Cc2ccc3c(c2)CCC3)Cc2cc3c(cc2C1)CCC3 | 33 | 81.9 | > 100 | > 100 | > 100 | 49.2 | – | 75.5 | > 100 | 37.9 | > 100 | 82.4 | – | > 100 | 88.2 | 86.2 | > 100 | > 100 | > 100 | > 100
Cc1cc2nc3c(C#N)c(-c4ccccc4)cc(Nc4ccc(Cl)cc4)n3c2cc1C | – | > 100 | > 100 | > 100 | > 100 | > 100 | – | > 100 | – | – | > 100 | > 100 | > 100 | > 100 | > 100 | > 100 | > 100 | > 100 | > 100 | > 100
COCCOCc1nc(C#N)c(N)o1 | > 100 | > 100 | > 100 | > 100 | > 100 | > 100 | > 100 | – | > 100 | > 100 | > 100 | > 100 | > 100 | > 100 | > 100 | > 100 | > 100 | > 100 | > 100 | > 100
C=C1C[C@@H]2O[C@H]3[C@H]4[C@@H](C[C@@H](C)[C@@H](OC(C)=O)[C@H]42)[C@@H](C)CO[C@@]3(C)[C@H](OC(C)=O)C[C@H]1O | 85.6 | > 100 | > 100 | > 100 | > 100 | – | > 100 | > 100 | 63.7 | > 100 | > 100 | 38.7 | > 100 | > 100 | > 100 | > 100 | > 100 | > 100 | > 100 | > 100
CC(C)(Cc1ccccc1)NC1=NCCO1 | > 100 | > 100 | > 100 | – | > 100 | > 100 | > 100 | > 100 | > 100 | > 100 | > 100 | > 100 | > 100 | > 100 | > 100 | > 100 | > 100 | – | > 100 | > 100
CS(=O)(=O)Nc1ccc(N2Cc3cnc4ccc5[nH]ccc2c5c34)cc1 | 8.94 | 42.2 | 37.5 | – | 49.4 | 48.1 | 63.6 | 29.5 | 38.7 | 95.7 | > 100 | 28.2 | 29 | 32.2 | – | 31.8 | > 100 | 35 | 42 | > 100
CC(=O)OCCn1cnc2nc(Nc3ccccc3)nc(Cl)c21 | > 100 | > 100 | > 100 | > 100 | > 100 | > 100 | 34.4 | > 100 | > 100 | > 100 | > 100 | > 100 | > 100 | 88.1 | > 100 | > 100 | > 100 | > 100 | > 100 | –
CC(C)(C)OC(=O)NCC(O)CNC(=O)OC(C)(C)C | > 100 | > 100 | > 100 | > 100 | > 100 | > 100 | > 100 | > 100 | > 100 | – | > 100 | > 100 | > 100 | > 100 | > 100 | > 100 | > 100 | > 100 | > 100 | > 100
CCCCCN=Cc1c(O)c(O)c(C(C)C)c2cc(C)c(-c3c(C)cc4c(C(C)C)c(O)c(O)c(C=NCCCCC)c4c3O)c(O)c12 | – | 88.4 | 65.1 | 47.3 | > 100 | > 100 | 14.6 | 25.2 | 70 | > 100 | 78 | 16.7 | 28.1 | 9.15 | 39.7 | 46.2 | 31.3 | > 100 | 41.1 | 41.1
COc1ccc2nc3ccc(OC)cc3c(S(=O)CCCl)c2c1 (centres undefined) | > 20.7 | 33.9 | 11.8 | 28.2 | 34 | 4.9 | 10.8 | 3.23 | > 23.6 | 4.39 | > 20.6 | 6.81 | 28.2 | 3.13 | 40.2 | 5.38 | 3.62 | 3.72 | 23.4 | –
